Assay results from US9669003B2, “Use of flavone and flavanone derivatives in preparation of sedative and hypnotic drugs” (priority 2012, dated 2017).
Marks after values point to notes of the source that are not given here.

How the values were obtained:
Assay type in all cases: in vivo
Kunming mice [1] = test: Influence on autonomic activity of normal mice (ZIL-2 mice autonomic activity meter, counts within 10 min); settings: intragastric, x ± s, n = 10; for Times of activities in 1 h after drug administration/10 min: 1 h after administration; for Times of activities in 2 h after drug administration/10 min: 2 h after administration; for Times of activities in 24 h after drug administration/10 min: 24 h after administration
Procedure, shortened: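 Activity counts during a 10-min window were taken at 1, 2 and 24 h after dosing in groups of 10 mixed-sex Kunming mice. Compounds were given in 0.5% CMC-Na at 25, 50 or 100 mg/kg. Statistics used Levene's homogeneity test, ANOVA and Dunnett's multiple comparisons.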

Kunming mice [2] = test: Influence on hypnosis effect with pentobarbital sodium doses below the threshold (25 mg/kg i.p.); settings: pentobarbital sodium 25 mg/kg i.p. 60 min later, sleep observed in 30 min, n = 10
Procedure, shortened: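 Percentage of mice sleeping within 30 min after subthreshold pentobarbital sodium (25 mg/kg i.p.), defined by loss of righting reflex over 1 min, analysed by χ2. Compound in 0.5% CMC-Na given intragastrically at 25/50/100 mg/kg 60 min before; groups of 10 Kunming mice, both sexes.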

Kunming mice [3] = test: Influence on hypnosis effect with pentobarbital sodium doses at the threshold (50 mg/kg i.p.); settings: pentobarbital sodium 50 mg/kg i.p. 60 min later, x ± s, n = 10
Procedure, shortened: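 Pentobarbital sodium (0.3%, 50 mg/kg i.p.) injected 60 min after a single intragastric dose (25, 50, 100 mg/kg, 0.5% CMC-Na vehicle) in Kunming mice, 10 per group, sexes balanced. Onset and length of sleep (righting reflex lost over 1 min) analysed by ANOVA; sleeping incidence by χ2 test.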

[4] = test drug 25 mg/kg intragastric single dose
[5] = test drug 50 mg/kg intragastric single dose
[6] = test drug 100 mg/kg intragastric single dose
[7] = 25 mg/kg intragastric single dose
[8] = 50 mg/kg intragastric single dose
[9] = 100 mg/kg intragastric single dose

Row | Molecule | Times of activities in 1 h after drug administration/10 min (Kunming mice [1]; 25 mg/kg) | Times of activities in 2 h after drug administration/10 min (Kunming mice [1]; 25 mg/kg) | Times of activities in 24 h after drug administration/10 min (Kunming mice [1]; 25 mg/kg) | Times of activities in 1 h after drug administration/10 min (Kunming mice [1]; 50 mg/kg) | Times of activities in 2 h after drug administration/10 min (Kunming mice [1]; 50 mg/kg) | Times of activities in 24 h after drug administration/10 min (Kunming mice [1]; 50 mg/kg) | Times of activities in 1 h after drug administration/10 min (Kunming mice [1]; 100 mg/kg) | Times of activities in 2 h after drug administration/10 min (Kunming mice [1]; 100 mg/kg) | Times of activities in 24 h after drug administration/10 min (Kunming mice [1]; 100 mg/kg) | Number of sleeping animals (Kunming mice [2]; [4]) | rate of sleeping (%) (Kunming mice [2]; [4]) | Number of sleeping animals (Kunming mice [2]; [5]) | rate of sleeping (%) (Kunming mice [2]; [5]) | Number of sleeping animals (Kunming mice [2]; [6]) | rate of sleeping (%) (Kunming mice [2]; [6]) | duration of sleep (Kunming mice [3]; [7]) | time to sleep (Kunming mice [3]; [7]) | duration of sleep (Kunming mice [3]; [8]) | time to sleep (Kunming mice [3]; [8]) | duration of sleep (Kunming mice [3]; [9]) | also measured
1 | COc1ccc(-c2cc(=O)c3c(O)c(OC)c(OC)c(OC)c3o2)cc1OC [Example 11, 5-hydroxyl-6,7,8,3′,4′-penta methoxyl-flavone] | 243.1 ± 53.5 /10 min | 237.3 ± 45.3 /10 min | 291.7 ± 72.5 /10 min | 187.2 ± 41.4 /10 min | 179.7 ± 46.0 /10 min | 287.8 ± 89.1 /10 min | 115.9 ± 48.5 /10 min | 126.7 ± 48.7 /10 min | 315.2 ± 75.4 /10 min | 5 | 50** % | 6 | 60** % | 8 | 80*** % | 47.25 ± 14.42 min | 3.42 ± 1.37 min | 63.75 ± 20.27 min | 3.13 ± 1.21 min | 78.54 ± 19.27 min | time to sleep (Kunming mice [3]; [9]): 2.13 ± 1.33 min
2 | COc1ccc(-c2cc(=O)c3c(OC)c(OC)c(OC)cc3o2)cc1OC [Example 10, 5,6,7,3′,4′-penta methoxyl-flavone] | 289.3 ± 50.1 /10 min | 275.6 ± 44.1 /10 min | 315.6 ± 76.3 /10 min | 257.2 ± 61.3 /10 min | 260.1 ± 58.2 /10 min | 325.3 ± 80.2 /10 min | 131.2 ± 30.8 /10 min | 231.6 ± 44.2 /10 min | 304.1 ± 82.5 /10 min | 2 | 20% | 5 | 50** % | 6 | 60** % | 31.72 ± 21.73 min | 5.42 ± 1.58 min | 39.41 ± 21.74 min | 3.90 ± 1.34 min | 59.21 ± 22.41 min | time to sleep (Kunming mice [3]; [9]): 3.81 ± 1.63 min
3 | C=Cc1cc(C(N)=O)cc2oc(-c3ccc(N)c(C4CCSC4)c3)cc(=O)c12 (stereo not drawn) [Example 38] | 312.9 ± 40.6 /10 min | 296.2 ± 34.6 /10 min | 268.9 ± 82.8 /10 min | 259.2 ± 54.6 /10 min | 257.1 ± 57.2 /10 min | 279.7 ± 76.5 /10 min | 182.7 ± 41.3 /10 min | 165.4 ± 56.2 /10 min | 324.7 ± 80.9 /10 min | 6 | 60** % | 8 | 80*** % | 9 | 90*** % | 29.67 ± 21.25 min | 4.92 ± 2.48 min | 36.68 ± 12.30 min | 4.67 ± 1.55 min | 52.95 ± 20.05 min | time to sleep (Kunming mice [3]; [9]): 3.98 ± 1.27 min
4 | 6,7,8,4′-tetramethoxyl-flavone [Example 6] | 330.1 ± 51.2 /10 min | 314.5 ± 56.7 /10 min | 338.1 ± 96.3 /10 min | 286.7 ± 61.7 /10 min | 279.5 ± 48.2 /10 min | 311.5 ± 91.5 /10 min | 238.3 ± 36.3 /10 min | 249.8 ± 45.8 /10 min | 308.2 ± 82.7 /10 min | 3 | 30% | 5 | 50** % | 6 | 60** % | 29.81 ± 21.65 min | 5.51 ± 1.39 min | 47.21 ± 22.93 min | 4.20 ± 1.40 min | 55.33 ± 19.32 min | time to sleep (Kunming mice [3]; [9]): 3.91 ± 2.16 min
5 | COc1cc2c(c(OC)c1OC)OC(c1cc(OC)c(OC)c(OC)c1OC)CC2=O (stereo not drawn) [Example 67, 6,7,8,3′,4′,5′,6′-hepta methoxyl-flavanone] | 287.7 ± 45.4 /10 min | 312.5 ± 54.8 /10 min | 307.4 ± 77.0 /10 min | 247.2 ± 44.5 /10 min | 251.3 ± 38.8 /10 min | 314.6 ± 94.9 /10 min | 223.4 ± 46.5 /10 min | 243.7 ± 40.6 /10 min | 301.9 ± 88.6 /10 min | 5 | 50** % | 6 | 60** % | 7 | 70** % | 80.69 ± 20.87 min | 4.34 ± 1.26 min | 48.12 ± 22.48 min | 4.09 ± 1.45 min | 54.43 ± 19.81 min | time to sleep (Kunming mice [3]; [9]): 3.87 ± 2.98 min
6 | COc1ccc(C2CC(=O)c3c(O)cccc3O2)cc1O (stereo not drawn) [Example 62] | 279.2 ± 45.4 /10 min | 264.9 ± 44.7 /10 min | 309.0 ± 81.9 /10 min | 237.4 ± 41.9 /10 min | 242.6 ± 49.2 /10 min | 297.2 ± 69.5 /10 min | 125.6 ± 32.8 /10 min | 170.3 ± 35.2 /10 min | 279.4 ± 86.3 /10 min | 3 | 30% | 4 | 40* % | 6 | 60** % | 34.29 ± 22.83 min | 4.87 ± 1.96 min | 57.24 ± 17.30 min | 4.21 ± 1.72 min | 65.03 ± 32.12 min | time to sleep (Kunming mice [3]; [9]): 3.78 ± 1.90 min
7 | COc1cc(OC)c2c(c1)OC(c1cc(OC)c(OC)c(OC)c1OC)CC2=O (stereo not drawn) [Example 66, 5,7,2′,3′,4′,5′-hexa methoxyl-flavanone] | 307.7 ± 54.6 /10 min | 281.3 ± 31.2 /10 min | 314.7 ± 66.7 /10 min | 275.8 ± 44.3 /10 min | 270.7 ± 46.3 /10 min | 314.1 ± 81.4 /10 min | 258.4 ± 40.3 /10 min | 243.9 ± 41.2 /10 min | 334.7 ± 62.9 /10 min | 3 | 30% | 5 | 50** % | 8 | 80*** % | 23.81 ± 25.29 min | 5.37 ± 2.12 min | 27.79 ± 26.78 min | 5.12 ± 2.65 min | 61.44 ± 47.33 min | time to sleep (Kunming mice [3]; [9]): 3.14 ± 1.10 min
